We go through 13 molecules from article PMC4281095 (Journal of Medicinal Chemistry, 2014).

pIC50, pKi: −log10 of the molar value.

Assay [1] concerns the target T1, CpIMPDH (Cryptosporidium parvum, UniProt Q8T6T2).
T1 sequence (Q8T6T2 1-400): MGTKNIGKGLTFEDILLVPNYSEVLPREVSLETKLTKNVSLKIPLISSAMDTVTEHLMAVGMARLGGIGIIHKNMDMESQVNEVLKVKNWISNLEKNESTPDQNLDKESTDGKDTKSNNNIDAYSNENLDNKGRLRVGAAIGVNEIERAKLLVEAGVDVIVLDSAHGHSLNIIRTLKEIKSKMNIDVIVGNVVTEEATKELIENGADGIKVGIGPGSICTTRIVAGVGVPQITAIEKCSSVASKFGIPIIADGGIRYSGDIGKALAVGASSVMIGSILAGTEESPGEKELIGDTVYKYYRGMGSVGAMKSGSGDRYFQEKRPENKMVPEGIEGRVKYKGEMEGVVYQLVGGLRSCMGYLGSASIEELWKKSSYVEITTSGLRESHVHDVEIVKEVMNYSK
Kind of assay: CpIMPDH inhibition, NADH production monitored by fluorescence. Particulars: for CpIMPDH inhibition, result in words: qualitative statement; for fold increase in CpIMPDH activity: relative to 8a; for fold loss of CpIMPDH potency / inhibition: relative to 8k.

Assay [2] deals with hIMPDH2 (Homo sapiens, UniProt P12268). Briefly: Assessment of hIMPDH2 inhibition, NADH production. Format: biochemical. As to conditions: read-out: hIMPDH2 inhibition.
In assay [3] the target is hIMPDH1. Particulars: read-out: hIMPDH1 Ki; cited from earlier work.
Assay [4] has as its target T1, CpIMPDH. As to conditions: read-out: CpIMPDH IC50; cited from earlier work.

`O=C(Cn1ncc2c(=O)oc3ccccc3c21)Nc1ccc(Cl)cc1Cl` [8g]: the “CpIMPDH inhibition, result in words” value in assay [1] is given as “no inhibition activity”.

In the case of `O=C(Cn1ncc2c(=O)oc3ccccc3c21)Nc1ccccc1Cl` [8c], in assay [1], the “CpIMPDH inhibition, result in words” value was “no inhibitory activity”.

As to `COc1cccc(NC(=O)Cn2ncc3c(=O)oc4ccccc4c32)c1` [8a, 4-oxo-N-(3-methoxyphenyl)-[1]benzopyrano[4,3-c]pyrazole-1(4H)-acetamide], the inhibition at 5 µM in assay [2] was less than 20%.

On to `O=C(Cn1ncc2c(=O)oc3ccccc3c21)Nc1ccc2[nH]cnc2c1` [13a], for which the “CpIMPDH inhibition, result in words” value in assay [1] is “only weak or no inhibitory activity”.

`COc1cc(N(C)C(=O)Cn2ncc3c(=O)oc4ccccc4c32)ccc1Cl` [8l]: the “CpIMPDH inhibition, result in words” value in assay [1] was “loss of activity”.

Take `O=C(Cn1ncc2c(=O)oc3ccccc3c21)Nc1cccc(Cl)c1` [8b]: the “CpIMPDH inhibition, result in words” value in assay [1] is listed as “loss of inhibition”.

On to `O=C(Cn1ncc2c(=O)oc3ccccc3c21)Nc1ccc(F)cc1` [8d], for which the “fold increase in CpIMPDH activity” value in assay [1] was 3 fold.

`COc1cc(NC(=O)C(C)n2ncc3c(=O)oc4ccccc4c32)ccc1Cl` (centres unmarked) [8m]: the “fold loss of CpIMPDH potency / inhibition” value in assay [1] is 3 fold.

Consider `COc1cc(NC(=O)Cn2ncc3c2-c2ccccc2OC3)ccc1Cl` [13e], for which the “fold loss of CpIMPDH potency / inhibition” value in assay [1] is recorded as 3 fold.

On to `COc1ccc(NC(=O)Cn2ncc3c(=O)oc4ccccc4c32)cc1OC` [8i], for which the “CpIMPDH inhibition, result in words” value in assay [1] is reported as “loss of enzyme inhibition”.

In the case of `O=C(Cn1ncc2c(=O)oc3ccccc3c21)Nc1ccc(C(F)(F)F)cc1` [8e], the “fold increase in CpIMPDH activity” value in assay [1] is on record as 3 fold.

For `O=C(Cn1ncc2c(=O)oc3ccccc3c21)Nc1ccc2[nH]ccc2c1` [13c], in assay [1], the “CpIMPDH inhibition, result in words” value is “only weak or no inhibitory activity”.

Consider `COc1c(C)c2c(c(O)c1C/C=C(\C)CCC(=O)O)C(=O)OC2` [mycophenolic acid], for which the pKi in assay [3] was 7.48. The pIC50 in assay [4] is roughly 5.00.

By inhibition is commonly meant the share of the control response that was lost under treatment. One may read the pKi as −log10 of the Ki, conventionally taken in molar units. As usually defined, the pIC50 is the IC50 on a negative log10 scale, so that one unit is a factor of ten.
